Source: US5496856A, “Aspartame for its application as a therapeutically active substance” (priority 1993, dated 1996)
“Also recorded” adds a separate entry of the source. Peptide text beside a SMILES is read from it.

Experiments:
human plasma proteins [1] = assay: OTA binding to human plasma proteins, condition (ii): OTA with or without aspartame in lower compartment; type: in vitro ADME
Method: (§1) A further study was performed in order to determine the effect of aspartame on OTA binding on human plasma proteins in vitro.
(§2) An in-vitro study was performed on plasma samples obtained from healthy human volunteers, from a French blood bank (Centre de transfusion sanguine in Bordeaux), using citrate as anticoagulant. Blood samples were centrifuged at 1800 g for 30 minutes. This pooled human plasma contained 41±3 g of proteins per liter.
(§3) Static diffusion cells (polypropylene, homemade according to the model provided by Nalgene, USA) containing two compartments (upper and lower) separated by a dialysing membrane having a 10 000 D exclusion limit (Sigma Chemical, USA) were used. This membrane allows OTA and aspartame diffusion and not protein diffusion.
(§4) A human plasma sample was placed in the upper compartment and a medium (RPMI 1640, Sigma chemical, USA) in the lower one.
(§5) The plasma binding properties of OTA were evaluated under two different conditions:
(ii) The upper compartment contained human plasma proteins only and OTA (20, 100 and 500 μg/ml) was added into the lower compartment alone or concommitantly with 10 μg/ml aspartame.
(§6) OTA concentration in the upper compartment was determined by HPLC (Mobile phase: methanol, acetonitrile, acetic acid, sodium acetate 5 mM (300: 300: 400: 14 v/v/v/v); injection volume 50 μl; flow rate 1 ml/min; run time for one cycle: 10 min and fluorescence detection (excitation at 340 nm and emission at 465 nm).
(§7) Before extraction of OTA from the plasma, all the studied samples of plasma, which had already fixed OTA, were dialysed against free OTA RPMI medium for at least 15 minutes, one or several times, until no more OTA was found in the lower compartment.
(§8) The results obtained under condition (i) as defined hereinabove are reported in Table I, whereas the results obtained under condition (ii) are reported in Table II.
Under condition (ii) (Table II), the aspartame was put in the same compartment as OTA in the non-plasmatic compartment to mimic the stomach (the ration OTA/aspartame=1.5 to 36).

renal cells = assay: Entry of ochratoxin into renal cells; conditions: ochratoxin A with aspartame
glomerular filtration [2] = conditions: mice
Method: Male mice of the Swiss strain weighing 32±2 g are distributed into cages in groups of 5. The animals are classified in order of increasing weight and distributed randomly into 4 groups of 5 mice (homogeneous distribution by randomization).
An amount of ochratoxin A corresponding to 289 μg/kg of body weight is given to the mice via an esophageal tube every 48 h for one week; the toxin is dissolved in 0.3 ml of 0.1M NaHCO3, pH 7.4.
0.3 ml of 0.1 M NaHCO3, pH 7.4, is given in the same way to the mice used as controls.
4 groups of 5 mice were studied.
Group I: control mice treated with 0.1 M NaHCO3, pH 7.4
Group II: mice treated with ochratoxin A (289 μg/kg)
Group III: mice treated with ochratoxin A (289 μg/kg)+aspartame (30 mg/kg)
Group IV: control mice treated with aspartame only.
The aspartame is administered in 0.3 ml of H2 O one hour after the last administration of ochratoxin A.
The mice are placed in a metabolic cage for 15 hours and then sacrificed.
The creatinine is assayed in the 15-hour urine and serum.

tubular cells = assay: Urinary renal enzyme activities (LAP, PAL, LDH, γ-GT) in rats treated with ochratoxin A; type: in vivo; conditions: aspartame 25 mg/kg + ochratoxin A 289 μg/kg, 3 weeks
Method: (§9) The animals used in this experiment are male rats of the Wistar strain weighing 160±10 g.
(§10) The aspartame is administered by gavage, at the same time as the ochratoxin A, every 48 hours for 3 weeks.
(§11) Group I: control rats (blanks)
(§12) Group II: control rats treated with 0.1 M NaHCO3, pH 7.4
(§13) Group III: rats treated with ochratoxin A (289 μg/kg)
(§14) Group IV: rats treated with ochratoxin A (289 μg/kg)+aspartame (25 mg/kg).
(§15) The control and treated rats are placed in a metabolic cage for 24 hours for urine sampling and then sacrificed.

[3] = Toxic oxidative effects of ochratoxin A in vivo and in vitro
glomerular filtration [4] = assay: Serum and urine creatinine in ochratoxin A-treated rats; type: in vivo, male rats of the Wistar strain
Method: The animals used in this experiment are male rats of the Wistar strain weighing 160±10 g. The animals are classified in order of increasing weight and distributed randomly into 4 groups of 6 rats (homogeneous distribution by randomization).
An amount of ochratoxin A corresponding to 289 μg/kg of body weight is given to the rats by gavage every 48 hours for 3 weeks; the toxin is dissolved in 0.3 ml of a 0.1 M solution of NaHCO3, pH 7.4.

[5] = Urine proteins in rats treated with ochratoxin A; type: in vivo; conditions: aspartame 25 mg/kg + ochratoxin A 289 μg/kg, 3 weeks
Method: as §9, §10, §11, §12, §13, §14, §15

[6] = Plasma concentration of aspartame after oral administration; type: in vivo; conditions: within 24h, per os
DNA = DNA adducts by postlabeling with ATP gamma 32P in organs (genotoxicity); type: in vivo, rats
Method: as §9, §10, §15
The organs of the same animals were used for extraction of the DNA, which was analyzed by the technique of postlabeling with ATP gamma 32P in order to evaluate the genotoxicity by the presence of adducts with DNA bases.

human plasma proteins [7] = assay: OTA binding to human plasma proteins, condition (i): aspartame in upper (plasma) compartment; type: in vitro ADME
Method: as §1, §2, §3, §4, §5
(i) The aspartame at a concentration of 10 μg/ml was added in the upper compartment containing human plasma proteins before introducing OTA at three different concentrations (20, 100, and 500 μg/ml) in the lower compartment;
as §6, §7, §8

[8] = Serum and urine assays of ochratoxin (urinary elimination); type: in vivo, rats
Method: as §9, §10, §11, §12, §13, §14, §15

[9] = OTA 20 μg/ml, 30 min, aspartame 10 μg/ml
[10] = OTA 20 μg/ml, 60 min, aspartame 10 μg/ml
[11] = OTA 20 μg/ml, 120 min, aspartame 10 μg/ml
[12] = OTA 100 μg/ml, 30 min, aspartame 10 μg/ml
[13] = OTA 100 μg/ml, 60 min, aspartame 10 μg/ml
[14] = OTA 100 μg/ml, 120 min, aspartame 10 μg/ml
[15] = OTA 500 μg/ml, 30 min, aspartame 10 μg/ml
[16] = OTA 500 μg/ml, 60 min, aspartame 10 μg/ml
[17] = OTA 500 μg/ml, 120 min, aspartame 10 μg/ml
[18] = aspartame 30 mg/kg one hour after last ochratoxin A
[19] = rats, aspartame 25 mg/kg + ochratoxin A 289 μg/kg every 48 h, 3 weeks, gavage

Question: What does the source list for `COC(=O)[C@H](Cc1ccccc1)NC(=O)[C@@H](N)CC(=O)O` [Aspartame, methyl ester of L-aspartyl- L-phenylalanine] (H-Asp-Phe-OMe)?
Answer: Quantities of OTA bound to plasma proteins, OTA + Aspartame (Table II) (human plasma proteins [1]; [9]): 159 ± 13 ng/mL; Quantities of OTA bound to plasma proteins, OTA + Aspartame (Table II) (human plasma proteins [1]; [10]): 53 ± 6 ng/mL; Quantities of OTA bound to plasma proteins, OTA + Aspartame (Table II) (human plasma proteins [1]; [11]): 39 ± 4 ng/mL; Quantities of OTA bound to plasma proteins, OTA + Aspartame (Table II) (human plasma proteins [1]; [12]): 245 ± 15 ng/mL; Quantities of OTA bound to plasma proteins, OTA + Aspartame (Table II) (human plasma proteins [1]; [13]): 459 ± 27 ng/mL; Quantities of OTA bound to plasma proteins, OTA + Aspartame (Table II) (human plasma proteins [1]; [14]): 587 ± 38 ng/mL; Quantities of OTA bound to plasma proteins, OTA + Aspartame (Table II) (human plasma proteins [1]; [15]): 516 ± 19 ng/mL; Quantities of OTA bound to plasma proteins, OTA + Aspartame (Table II) (human plasma proteins [1]; [16]): 1127 ± 89 ng/mL; Quantities of OTA bound to plasma proteins, OTA + Aspartame (Table II) (human plasma proteins [1]; [17]): 1789 ± 56 ng/mL; efficiency in preventing the binding of OTA on human plasma proteins (human plasma proteins [1]; OTA in lower compartment (stomach), OTA as high as 20 μg/ml): more than 95%; prevention of the binding of OTA (human plasma proteins [1]; Table II, OTA 100 μg/ml, aspartame 10 μg/ml): 50%; efficiency in preventing OTA binding (in words) (human plasma proteins [1]; Table II, OTA 500 μg/ml, aspartame 10 μg/ml): no longer efficient; concentration/entry of ochratoxin in renal cells (renal cells): limiting the entry of ochratoxin into these cells; also recorded: reducing the concentration of ochratoxin in the renal cells; effect on the increase in serum creatinine (glomerular filtration [2]; [18]): very markedly reduces the increase in serum creatinine; effect on urine creatinine (glomerular filtration [2]; [18]): increases the level of urine creatinine, which is similar to the control values; effects on serum creatinine and serum creatinine/urine creatinine ratio (glomerular filtration) (glomerular filtration [2]; aspartame 30 mg/kg with ochratoxin A 289 μg/kg): beneficial; effect on the increase in urinary enzymic activities caused by ochratoxin A (tubular cells): appreciably reduces the increase in the enzymic activities caused by ochratoxin A; urinary enzymic activities vs controls (tubular cells): not being significantly different from those of the controls; effect on toxic oxidative effects of ochratoxin A [3]: opposes the toxic oxidative effects of ochratoxin A in vivo and in vitro; level of serum creatinine (glomerular filtration [4]; [19]): significant reduction in the level of serum creatinine; level of urine creatinine (glomerular filtration [4]; [19]): parallel increase in the level of urine creatinine, which is comparable to the control level; tubular and glomerular attacks caused by ochratoxin (glomerular filtration [4]; summary statement): protects the kidney from the tubular and glomerular attacks caused by ochratoxin; effect on the ochratoxin-induced increase in the level of urine proteins [5]: reduces the increase, induced by ochratoxin, in the level of urine proteins; oral dose of aspartame giving plasma concentration of 10 mg/l [6]: 400 to 600 mg; DNA adducts in organs, aspartame and OTA (DNA; aspartame 25 mg/kg + OTA 289 μg/kg, 3 weeks): virtually complete disappearance of the DNA adducts; also recorded: comparable to those of the controls; nephrotoxic and genotoxic effects (overall conclusion) (DNA; results of the experiments performed): suppresses not only the nephrotoxic effects but also the genotoxic effects; Quantities of OTA bound to plasma proteins, OTA + Aspartame (Table I) (human plasma proteins [7]; [9]): 157 ± 12 ng/mL; Quantities of OTA bound to plasma proteins, OTA + Aspartame (Table I) (human plasma proteins [7]; [10]): 97 ± 4 ng/mL; Quantities of OTA bound to plasma proteins, OTA + Aspartame (Table I) (human plasma proteins [7]; [11]): 15 ± 3 ng/mL; Quantities of OTA bound to plasma proteins, OTA + Aspartame (Table I) (human plasma proteins [7]; [12]): 193 ± 17 ng/mL; Quantities of OTA bound to plasma proteins, OTA + Aspartame (Table I) (human plasma proteins [7]; [13]): 74 ± 11 ng/mL; Quantities of OTA bound to plasma proteins, OTA + Aspartame (Table I) (human plasma proteins [7]; [14]): 55 ± 15 ng/mL; OTA available that is bound as compared to control without aspartame (human plasma proteins [7]; OTA 100 μg/ml, aspartame 10 μg/ml): 4.5%; Quantities of OTA bound to plasma proteins, OTA + Aspartame (Table I) (human plasma proteins [7]; [15]): 275 ± 41 ng/mL; Quantities of OTA bound to plasma proteins, OTA + Aspartame (Table I) (human plasma proteins [7]; [16]): 296 ± 45 ng/mL; Quantities of OTA bound to plasma proteins, OTA + Aspartame (Table I) (human plasma proteins [7]; [17]): 345 ± 51 ng/mL; OTA available that is bound to plasma proteins as compared to control without aspartame (human plasma proteins [7]; OTA 500 μg/ml, aspartame 10 μg/ml): 19.8%; dependence of efficiency in preventing OTA binding on OTA concentration (human plasma proteins [7]; OTA 20 to 500 μg/ml): inversely proportional to the concentrations of OTA; OTA available that is bound as compared to the control without aspartame (human plasma proteins [7]; Table I, OTA 20 μg/ml, aspartame 10 μg/ml): 2%; efficiency in preventing the binding of OTA on human plasma proteins (human plasma proteins [7]; Table I, OTA concentrations as high as 20 μg/ml, aspartame 10 μg/ml): about 98%; OTA bound (in words) (human plasma proteins [7]; aspartame 10 μg/ml, i.e. 10 mg/l): practically no OTA bound; efficiency in preventing the OTA binding on human plasma proteins (conclusion) (human plasma proteins [7]; normal conditions, OTA concentrations lower than 20 μg/ml): at least 95%; urinary elimination of ochratoxin ([8]; serum and urine assays, rats, aspartame 25 mg/kg + ochratoxin A, 3 weeks): very substantially favors urinary elimination of the ochratoxin A; also recorded: significantly increases the urinary elimination of ochratoxin; effect on metabolism and elimination of ochratoxin A ([8]; summary statement): slow down the metabolism and accelerate the elimination of ochratoxin A
